Test results as given in PMC7827406, “Structure–Activity Relationship (SAR) Study of Spautin-1 to Entail the Discovery of Novel NEK4 Inhibitors” (International Journal of Molecular Sciences, 2021).
Like-named read-outs stand apart in the source and are kept apart here.

Legend:
Assay in all cases: biochemical
Parameters in all cases: Eurofins KinaseProfiler full panel at Km ATP, residual kinase activity (%) relative to DMSO
BRK(h) = molecular target: T1, BRK(h) (Homo sapiens, UniProt Q13882)
T1 construct: gene PTK6
T1 sequence (Q13882 whole entry): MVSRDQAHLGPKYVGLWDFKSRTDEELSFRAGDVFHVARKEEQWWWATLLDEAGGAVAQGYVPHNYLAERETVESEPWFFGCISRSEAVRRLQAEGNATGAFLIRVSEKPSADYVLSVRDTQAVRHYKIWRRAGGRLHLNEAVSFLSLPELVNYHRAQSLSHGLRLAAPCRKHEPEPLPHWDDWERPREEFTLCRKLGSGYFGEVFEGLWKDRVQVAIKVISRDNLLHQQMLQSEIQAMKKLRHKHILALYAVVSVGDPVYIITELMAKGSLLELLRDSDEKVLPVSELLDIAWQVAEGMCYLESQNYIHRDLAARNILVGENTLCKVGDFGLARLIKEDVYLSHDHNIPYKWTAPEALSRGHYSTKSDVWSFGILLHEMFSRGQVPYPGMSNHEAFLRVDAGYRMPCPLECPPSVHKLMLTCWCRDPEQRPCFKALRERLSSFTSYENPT
Summary of the method: (§1)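 Compounds screened at 10 µM in radiometric kinase activity assays at Km ATP, reported as remaining kinase activity (%). A KINOMEscan competition-binding screen at 10 µM measured DNA-tagged kinase retained on immobilized active-site ligand by qPCR.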

EGFR(T790M)(h) = EGFR(T790M)(h) (Homo sapiens, UniProt P00533, T790M)
Chain of EGFR(T790M)(h) (P00533 whole entry T790M): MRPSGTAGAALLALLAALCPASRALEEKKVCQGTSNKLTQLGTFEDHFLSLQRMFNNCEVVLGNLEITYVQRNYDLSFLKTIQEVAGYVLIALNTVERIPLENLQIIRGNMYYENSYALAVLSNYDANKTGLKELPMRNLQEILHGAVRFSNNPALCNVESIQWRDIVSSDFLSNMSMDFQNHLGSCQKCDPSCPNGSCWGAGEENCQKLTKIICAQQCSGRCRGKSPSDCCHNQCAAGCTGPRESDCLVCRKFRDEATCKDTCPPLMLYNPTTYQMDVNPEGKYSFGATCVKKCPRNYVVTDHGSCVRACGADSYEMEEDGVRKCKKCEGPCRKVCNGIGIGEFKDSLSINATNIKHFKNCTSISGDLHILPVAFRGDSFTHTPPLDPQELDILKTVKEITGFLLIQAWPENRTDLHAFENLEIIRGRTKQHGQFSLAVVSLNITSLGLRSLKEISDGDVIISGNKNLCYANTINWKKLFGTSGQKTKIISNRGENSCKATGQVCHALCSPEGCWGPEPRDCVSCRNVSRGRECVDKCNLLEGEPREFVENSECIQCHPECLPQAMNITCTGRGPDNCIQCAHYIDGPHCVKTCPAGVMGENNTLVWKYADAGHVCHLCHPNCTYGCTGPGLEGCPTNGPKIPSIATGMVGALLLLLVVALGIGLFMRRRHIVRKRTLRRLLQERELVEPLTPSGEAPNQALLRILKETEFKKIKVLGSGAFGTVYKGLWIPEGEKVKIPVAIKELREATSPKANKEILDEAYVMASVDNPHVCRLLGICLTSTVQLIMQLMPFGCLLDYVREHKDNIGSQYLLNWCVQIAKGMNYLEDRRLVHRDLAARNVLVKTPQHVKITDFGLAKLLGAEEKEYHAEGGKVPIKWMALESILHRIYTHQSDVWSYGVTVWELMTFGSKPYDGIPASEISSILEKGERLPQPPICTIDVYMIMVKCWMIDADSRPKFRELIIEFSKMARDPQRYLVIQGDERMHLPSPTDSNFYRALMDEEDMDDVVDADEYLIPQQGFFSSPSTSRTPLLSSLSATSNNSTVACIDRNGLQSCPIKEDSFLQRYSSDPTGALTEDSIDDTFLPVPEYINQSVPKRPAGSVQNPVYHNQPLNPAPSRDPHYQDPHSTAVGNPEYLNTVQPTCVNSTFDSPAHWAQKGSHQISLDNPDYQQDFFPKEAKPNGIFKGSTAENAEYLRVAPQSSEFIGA
Summary of the method: as §1

Fer(h) = Fer(h) (Homo sapiens, UniProt P16591)
Chain of Fer(h) (P16591 whole entry): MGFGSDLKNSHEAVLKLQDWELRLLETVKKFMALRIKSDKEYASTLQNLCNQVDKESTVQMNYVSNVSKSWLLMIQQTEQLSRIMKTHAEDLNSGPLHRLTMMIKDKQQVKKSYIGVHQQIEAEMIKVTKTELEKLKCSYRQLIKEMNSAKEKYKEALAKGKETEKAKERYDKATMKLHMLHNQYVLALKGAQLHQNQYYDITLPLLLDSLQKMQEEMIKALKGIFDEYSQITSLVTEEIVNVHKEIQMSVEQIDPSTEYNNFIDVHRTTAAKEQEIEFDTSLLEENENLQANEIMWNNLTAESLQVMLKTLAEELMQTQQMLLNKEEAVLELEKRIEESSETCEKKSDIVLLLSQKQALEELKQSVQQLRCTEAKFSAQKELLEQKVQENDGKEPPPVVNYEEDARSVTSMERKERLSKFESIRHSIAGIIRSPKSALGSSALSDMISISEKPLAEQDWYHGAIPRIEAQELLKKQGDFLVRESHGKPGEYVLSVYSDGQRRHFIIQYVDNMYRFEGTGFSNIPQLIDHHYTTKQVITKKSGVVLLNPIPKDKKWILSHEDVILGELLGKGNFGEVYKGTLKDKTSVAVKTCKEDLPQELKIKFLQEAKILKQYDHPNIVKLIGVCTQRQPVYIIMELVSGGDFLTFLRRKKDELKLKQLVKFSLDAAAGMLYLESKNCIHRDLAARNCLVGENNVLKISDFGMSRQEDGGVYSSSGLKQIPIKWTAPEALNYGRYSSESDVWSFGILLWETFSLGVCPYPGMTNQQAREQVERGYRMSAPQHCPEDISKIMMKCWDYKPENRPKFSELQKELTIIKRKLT
Summary of the method: as §1

LKB1(h) = molecular target: T2, LKB1(h) (Homo sapiens, UniProt Q15831)
T2 construct: gene STK11
T2 sequence (Q15831 1-433): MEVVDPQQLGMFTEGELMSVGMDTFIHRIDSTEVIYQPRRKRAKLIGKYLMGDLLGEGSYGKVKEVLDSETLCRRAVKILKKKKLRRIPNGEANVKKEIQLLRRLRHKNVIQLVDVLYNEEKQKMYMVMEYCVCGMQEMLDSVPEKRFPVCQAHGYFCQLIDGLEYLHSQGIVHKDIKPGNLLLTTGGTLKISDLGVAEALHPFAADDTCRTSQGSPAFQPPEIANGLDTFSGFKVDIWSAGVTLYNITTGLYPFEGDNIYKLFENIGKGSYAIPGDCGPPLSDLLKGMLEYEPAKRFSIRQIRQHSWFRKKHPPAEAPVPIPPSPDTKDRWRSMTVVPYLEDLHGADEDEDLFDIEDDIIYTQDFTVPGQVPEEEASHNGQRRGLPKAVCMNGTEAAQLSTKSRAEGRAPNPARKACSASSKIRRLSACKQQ
T2 sequence (Q7RTN6 1-431 partner): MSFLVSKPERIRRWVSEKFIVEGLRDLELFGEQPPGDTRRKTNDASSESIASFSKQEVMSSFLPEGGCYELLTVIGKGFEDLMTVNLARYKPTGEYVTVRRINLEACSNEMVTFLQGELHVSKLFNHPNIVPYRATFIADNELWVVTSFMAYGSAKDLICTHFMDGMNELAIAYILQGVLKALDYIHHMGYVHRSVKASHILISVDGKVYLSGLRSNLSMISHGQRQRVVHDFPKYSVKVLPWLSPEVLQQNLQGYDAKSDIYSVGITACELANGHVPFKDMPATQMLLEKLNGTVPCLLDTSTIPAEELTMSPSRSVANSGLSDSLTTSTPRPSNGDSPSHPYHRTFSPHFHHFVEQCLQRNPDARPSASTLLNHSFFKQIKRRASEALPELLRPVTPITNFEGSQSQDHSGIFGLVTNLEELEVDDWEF
T2 sequence (Q9Y376 1-341 partner): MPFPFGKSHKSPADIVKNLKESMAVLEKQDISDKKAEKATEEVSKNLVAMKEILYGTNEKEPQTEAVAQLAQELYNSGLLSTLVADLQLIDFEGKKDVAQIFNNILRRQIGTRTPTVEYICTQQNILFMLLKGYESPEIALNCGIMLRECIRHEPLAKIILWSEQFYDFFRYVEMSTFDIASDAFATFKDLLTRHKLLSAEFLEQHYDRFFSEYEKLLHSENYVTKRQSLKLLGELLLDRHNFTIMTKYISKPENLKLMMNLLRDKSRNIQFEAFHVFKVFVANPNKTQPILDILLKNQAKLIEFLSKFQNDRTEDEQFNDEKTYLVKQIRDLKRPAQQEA
Summary of the method: as §1

PDK1(h) = molecular target: T3, PDK1(h) (Homo sapiens, UniProt O15530)
T3 construct: gene PDPK1
T3 sequence (O15530 1-556): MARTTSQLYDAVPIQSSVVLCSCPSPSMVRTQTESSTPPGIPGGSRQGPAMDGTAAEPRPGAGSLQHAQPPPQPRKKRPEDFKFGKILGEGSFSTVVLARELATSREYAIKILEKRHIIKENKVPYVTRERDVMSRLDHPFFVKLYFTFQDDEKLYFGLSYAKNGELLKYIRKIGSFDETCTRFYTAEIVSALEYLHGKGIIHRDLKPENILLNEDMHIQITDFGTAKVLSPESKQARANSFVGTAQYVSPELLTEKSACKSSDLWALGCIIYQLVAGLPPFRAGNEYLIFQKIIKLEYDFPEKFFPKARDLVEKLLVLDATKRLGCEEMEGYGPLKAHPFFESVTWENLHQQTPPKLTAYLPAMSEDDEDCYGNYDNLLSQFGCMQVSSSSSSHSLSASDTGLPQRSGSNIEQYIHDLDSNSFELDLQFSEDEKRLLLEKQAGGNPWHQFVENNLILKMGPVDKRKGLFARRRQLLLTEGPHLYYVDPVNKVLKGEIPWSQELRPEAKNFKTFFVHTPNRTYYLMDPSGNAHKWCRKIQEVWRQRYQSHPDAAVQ
Summary of the method: as §1

WNK4(h) = WNK4(h) (Homo sapiens, UniProt Q96J92)
Chain of WNK4(h) (Q96J92 whole entry): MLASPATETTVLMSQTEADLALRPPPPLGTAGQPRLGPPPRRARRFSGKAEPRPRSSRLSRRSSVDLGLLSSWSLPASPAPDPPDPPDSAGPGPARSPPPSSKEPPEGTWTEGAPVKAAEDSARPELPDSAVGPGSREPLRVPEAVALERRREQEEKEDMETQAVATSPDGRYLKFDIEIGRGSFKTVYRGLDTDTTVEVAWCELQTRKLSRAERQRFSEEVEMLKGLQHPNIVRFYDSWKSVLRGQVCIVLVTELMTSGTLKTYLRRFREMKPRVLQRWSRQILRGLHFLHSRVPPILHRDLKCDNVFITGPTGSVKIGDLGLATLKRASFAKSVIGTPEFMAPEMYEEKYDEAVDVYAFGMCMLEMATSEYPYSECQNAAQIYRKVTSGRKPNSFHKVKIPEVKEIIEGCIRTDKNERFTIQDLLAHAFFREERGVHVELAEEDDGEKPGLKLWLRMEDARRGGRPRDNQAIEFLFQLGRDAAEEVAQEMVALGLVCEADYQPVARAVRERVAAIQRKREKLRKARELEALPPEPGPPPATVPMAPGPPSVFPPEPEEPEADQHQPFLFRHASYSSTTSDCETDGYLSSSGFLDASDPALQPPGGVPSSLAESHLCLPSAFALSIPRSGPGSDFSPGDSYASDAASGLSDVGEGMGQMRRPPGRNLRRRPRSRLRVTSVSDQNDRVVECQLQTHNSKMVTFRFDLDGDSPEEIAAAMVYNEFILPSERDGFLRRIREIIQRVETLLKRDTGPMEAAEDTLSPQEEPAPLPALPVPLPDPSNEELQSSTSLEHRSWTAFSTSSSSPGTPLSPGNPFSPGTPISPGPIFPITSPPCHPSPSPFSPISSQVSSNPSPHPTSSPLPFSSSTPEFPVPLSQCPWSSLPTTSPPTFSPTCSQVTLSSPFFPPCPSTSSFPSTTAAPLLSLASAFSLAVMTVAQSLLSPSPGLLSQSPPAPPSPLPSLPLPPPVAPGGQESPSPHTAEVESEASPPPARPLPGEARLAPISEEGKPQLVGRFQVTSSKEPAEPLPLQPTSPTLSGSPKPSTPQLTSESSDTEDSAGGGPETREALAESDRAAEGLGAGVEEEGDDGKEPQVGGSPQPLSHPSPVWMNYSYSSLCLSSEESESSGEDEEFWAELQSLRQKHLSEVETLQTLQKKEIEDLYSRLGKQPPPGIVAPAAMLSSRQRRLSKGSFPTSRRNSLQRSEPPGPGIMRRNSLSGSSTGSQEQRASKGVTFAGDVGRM
Summary of the method: as §1

[1] = read-out: Residual activity (%) 5ay
[2] = read-out: Residual activity (%) Spautin-1 5aa
[3] = read-out: Residual activity (%) 5at
[4] = read-out: Residual activity (%) 5as

COc1ccc2ncnc(Nc3cccc(F)c3)c2c1 [5ay, N-(3-Fluorophenyl)-6-Methoxy-4-Quinazolinamine]
remaining activity at 10 µM (BRK(h); [1]): 71%
remaining activity at 10 µM (EGFR(T790M)(h); [1]): 65%
remaining activity at 10 µM (Fer(h); [1]): 80%
remaining activity at 10 µM (LKB1(h); [1]): 100%
remaining activity at 10 µM (PDK1(h); [1]): 90%
remaining activity at 10 µM (WNK4(h); [1]): 100%

Fc1ccc(CNc2ncnc3ccc(F)cc23)cc1 [5aa, 6-Fluoro-N-(4-fluorobenzyl)-4-Quinazolinamine]
remaining activity at 10 µM (BRK(h); [2]): 105%
remaining activity at 10 µM (EGFR(T790M)(h); [2]): 90%
remaining activity at 10 µM (Fer(h); [2]): 76%
remaining activity at 10 µM (LKB1(h); [2]): 86%
remaining activity at 10 µM (PDK1(h); [2]): 102%
remaining activity at 10 µM (WNK4(h); [2]): 105%

Fc1ccc2ncnc(NCCc3ccc(Cl)cc3)c2c1 [5at, N-[2-(4-Chlorophenyl)Ethyl]-6-Fluoro-4-Quinazolinamine]
remaining activity at 10 µM (BRK(h); [3]): 96%
remaining activity at 10 µM (EGFR(T790M)(h); [3]): 74%
remaining activity at 10 µM (Fer(h); [3]): 94%
remaining activity at 10 µM (LKB1(h); [3]): 73%
remaining activity at 10 µM (PDK1(h); [3]): 84%
remaining activity at 10 µM (WNK4(h); [3]): 92%

Fc1ccc(CCNc2ncnc3ccc(F)cc23)cc1 [5as, 6-Fluoro-N-[2-(4-Fluorophenyl)Ethyl]-4-Quinazolinamine]
remaining activity at 10 µM (BRK(h); [4]): 87%
remaining activity at 10 µM (EGFR(T790M)(h); [4]): 87%
remaining activity at 10 µM (Fer(h); [4]): 98%
remaining activity at 10 µM (LKB1(h); [4]): 81%
remaining activity at 10 µM (PDK1(h); [4]): 88%
remaining activity at 10 µM (WNK4(h); [4]): 94%
